The values that follow come from PMC8080777, “Discovery, optimization, and evaluation of non-bile acid FXR/TGR5 dual agonists” (Scientific Reports, 2021).

Test [1] concerns FXR. The settings on record: cited from earlier work.
Test [2] deals with T1, TGR5 (Homo sapiens, UniProt Q8TDU6).
T1 construct: host or cells: CHO cells
T1 sequence (Q8TDU6 1-330): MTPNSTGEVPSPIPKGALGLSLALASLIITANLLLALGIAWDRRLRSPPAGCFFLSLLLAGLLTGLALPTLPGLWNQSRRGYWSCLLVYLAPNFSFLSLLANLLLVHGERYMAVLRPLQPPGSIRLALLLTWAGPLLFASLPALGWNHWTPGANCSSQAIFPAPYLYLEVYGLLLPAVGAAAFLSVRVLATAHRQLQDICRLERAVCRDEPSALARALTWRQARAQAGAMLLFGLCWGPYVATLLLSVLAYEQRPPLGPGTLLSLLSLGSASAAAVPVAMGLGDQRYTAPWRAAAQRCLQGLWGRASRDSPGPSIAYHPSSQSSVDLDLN
Nature of the test: TGR5 cAMP assay in CHO cells transfected with TGR5 (cAMP Hunter eXpress, Discover X). It is filed as cell-based. The method, then: TGR5 agonist activity was evaluated by transfecting CHO cells with TGR5 using the Discover X expression kit (cAMP Hunter eXpress GPCR Assay, Discover X Fremont, CA). Cells were incubated with test compounds for 0.5 h, and intracellular cAMP levels were measured using the multi-mode microplate reader.
(§1) TGR5 agonist activity was evaluated by transfecting CHO cells with TGR5 using the Discover X expression kit (cAMP Hunter eXpress Assay Kit, Discover X Fremont, CA, USA). Cells were incubated with the test compounds for 0.5 h, and intracellular cAMP levels were measured using Multi-Mode Microplate Reader (FlexStation 3, Molecular Devices Inc., San Jose, CA, USA).
Each compound was tested at concentrations of 10, 1, or 0.1 µM in duplicate (n = 2), with the average value shown.
S4. In vitro, in vivo assay, and selectvity. […]
In vitro TGR5 agonist assay protocol
as §1
Each compound was tested at concentrations of 10, 1, or 0.1 µM in duplicate (n=2), with the […]
parameter logistic equation, Y = min + (max - min)/(1 + 10^(n * (log10(EC50) - log10(conc)))), in […]

For test [3], the target named is T1, TGR5. The settings on record: cited from earlier work.
Test [4] deals with T2, FXR (Homo sapiens, UniProt Q96RI1).
T2 construct: host or cells: CHO cells
T2 sequence (Q96RI1 1-486): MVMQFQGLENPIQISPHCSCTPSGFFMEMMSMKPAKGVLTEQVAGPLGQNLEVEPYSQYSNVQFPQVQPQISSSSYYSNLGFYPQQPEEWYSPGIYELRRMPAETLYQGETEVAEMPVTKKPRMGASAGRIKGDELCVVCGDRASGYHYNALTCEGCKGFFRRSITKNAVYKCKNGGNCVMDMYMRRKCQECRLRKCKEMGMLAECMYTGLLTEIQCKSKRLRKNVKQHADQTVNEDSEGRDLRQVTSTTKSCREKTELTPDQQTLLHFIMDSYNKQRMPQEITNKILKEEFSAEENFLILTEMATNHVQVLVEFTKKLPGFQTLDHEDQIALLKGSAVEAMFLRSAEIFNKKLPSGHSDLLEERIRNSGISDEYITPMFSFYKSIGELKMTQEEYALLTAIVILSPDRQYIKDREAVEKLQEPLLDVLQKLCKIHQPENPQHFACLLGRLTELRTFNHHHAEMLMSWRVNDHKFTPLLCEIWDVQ
Nature of the test: CHO cell-based FXR luciferase reporter assay (Indigo Biosciences). The settings on record: for FXR Efficacy (%) (1 µM) / FXR Efficacy (%) (0.1 µM): % vs OCA 1 µM as 100%. The protocol: To evaluate direct agonist activities against FXR, test compounds were evaluated using a CHO cell-based FXR assay by Indigo Biosciences (State College, PA), in which cells were transfected with an FXR luciferase reporter system.
To directly evaluate the in vitro agonist activity towards FXR, test compounds were evaluated in CHO cells transfected with FXR responsive luciferase reporter (Nuclear Receptor & In Vitro Toxicology Solutions, Indigo Biosciences, State College, PA, USA). […] Each compound was tested in duplicate, and the average value was reported[35],[36].
(§2) The cell recovery medium (CRM, Human Farnesoid X Receptor (NR1H4, FXR reporter assay system, Indigo Biosciences, State College, PA, USA) and compound screening medium (CSM, Human Farnesoid X Receptor (NR1H4, FXR reporter assay system, Indigo Biosciences, State College, PA, USA) were removed from the freezer and thawed in a water bath at 37 °C. Test compounds were dissolved in dimethyl sulfoxide (DMSO, FUJIFILM Wako Pure Chemical Corporation, Osaka city, Osaka, Japan), and the treatment medium was prepared and diluted with CSM to achieve a final concentration of 0.2% total DMSO. The reporter cells were thawed by transferring 3.3 mL CRM at 37 °C into tubes of frozen cells. The tube containing reporter cells was recapped, and it was immediately place in a 37 °C water bath for 5 min. The reporter cells were gently inverted several times, and 100 µL cell suspension was dispensed into each well. One hundred microliters of treatment media was added into wells. Subsequently, the assay plate was kept at 37 °C, and it was incubated with 5% CO2 for 22 h. To prepare luciferase detection reagent (LDR), the detection substrate was gently mixed with detection buffer, media contents were removed from each well, and 100 µL LDR was added to each well of the assay plate. The assay plate was allowed to rest at room temperature for 5 min, and luminescence was quantified using the Multi-Mode Microplate Reader (FlexStation 3, Molecular Devices Inc., San Jose, CA, USA)[36].
S4. In vitro, in vivo assay, and selectvity.
To directly evaluate the in vitro agonist activity towards FXR, test compounds were evaluated in CHO cells transfected with FXR responsive luciferase reporter (Nuclear Receptor & In Vitro Toxicology Solutions, Indigo Biosciences, State College, PA, USA). Cells were incubated with […]
(FlexStation 3, Molecular Devices Inc., San Jose, CA, USA). Efficacies are reported relative to […]
reporter on of 1 µM. Each compound was tested in duplicate, and the average value was […]
as §2, with “sulfoxide (DMSO ,” for “sulfoxide (DMSO,”, “Osaka, Jap an),” for “Osaka, Japan),”, “a 37°C” for “a 37 °C”, “5% CO 2” for “5% CO2”, “using […]” for “using the Multi-Mode Microplate Reader (FlexStation 3, Molecular Devices Inc., San Jose, CA, USA)[36].”

Where “and” joins values, the source holds several entries; their conditions need not be identical. Identical values can stand only once.

As for `Cc1cc2c(CN(C(=O)c3ccncc3C)c3ccc(F)cc3C)cccc2[nH]1` [Compound 8, reference compound], the “Reported FXR activity (in words)” value in test [1] is recorded as “no agonist or antagonist activity against FXR”. Besides, the “TGR5 Efficacy (%) (0.1 µM)” value in test [2] (0.1 µM, % vs INT-767 10 µM as 100%) stood at 84.7%. In test [2] (% vs INT-767 10 µM as 100%), the “TGR5 Efficacy (%) (1 µM)” value was 84.7% and 66.1%. Moreover, the “Reported TGR5 activity (in words)” value in test [3] is reported as “TGR5 agonist”.
Consider `CN(C)c1ccc(-c2ccc(CN(C(=O)C3CCC(O)CC3)c3cc(Cl)cc(Cl)c3)cc2)cc1` (stereo not shown) [Compound 13ae], for which the “TGR5 Efficacy (%) (10 µM)” value in test [2] (% vs INT-767 10 µM as 100%) is given as -1.5%. In addition, in test [4], the “FXR agonist activity (in words)” value is “strong FXR activities” and the “FXR Efficacy (%) (1 µM)” value amounted to 101.4%.
Turning to `CN(C)c1ccc(-c2ccc(CN(C(=O)c3ccncc3Br)c3cc(Cl)cc(Cl)c3)cc2)cc1` [Compound 13y], the “TGR5 Efficacy (%) (10 µM)” value in test [2] (% vs INT-767 10 µM as 100%) was -2.0%. The “FXR Efficacy (%) (1 µM)” value in test [4] amounted to 51.6%.
Take `Cc1cnccc1C(=O)N(CC12CCC(c3ccc4c(c3)CCO4)(CC1)CC2)c1cc(Cl)cc(Cl)c1` [Compound 20m]: the “TGR5 Efficacy (%) (10 µM)” value in test [2] (% vs INT-767 10 µM as 100%) came out at 72.4%. Besides, in test [4], the “FXR Efficacy (%) (0.1 µM)” value is listed as 58.5% and the “FXR Efficacy (%) (1 µM)” value is given as 91.5%.
As for `Cc1cnccc1C(=O)N(Cc1ccc(-c2ccc(N(C)C)cc2)cc1)c1cc(Cl)cc(N2CCC2)c1` [Compound 13n], in test [2] (% vs INT-767 10 µM as 100%), the “TGR5 Efficacy (%) (10 µM)” value came to 10.2%. In addition, the “FXR Efficacy (%) (1 µM)” value in test [4] amounted to 20.2%.
On to `CN(C)c1ccc(-c2ccc(CN(C(=O)c3ccc(O)cc3Cl)c3cc(Cl)cc(Cl)c3)cc2)cc1` [Compound 13af], for which the “TGR5 Efficacy (%) (10 µM)” value in test [2] (% vs INT-767 10 µM as 100%) is -0.2%. Besides, in test [4], the “FXR agonist activity (in words)” value is recorded as “strong FXR activities” and the “FXR Efficacy (%) (1 µM)” value is listed as 108.2%.
As to `COc1ccc(C23CCC(CN(C(=O)c4ccncc4C)c4cc(F)cc(Cl)c4)(CC2)CC3)cc1C` [Compound 20i], the “TGR5 Efficacy (%) (10 µM)” value in test [2] (% vs INT-767 10 µM as 100%) turned out to be 62.1%. In test [4], the “FXR Efficacy (%) (0.1 µM)” value is recorded as 62.6% and the “FXR Efficacy (%) (1 µM)” value stood at 89.2%.
On to `CCc1cnccc1C(=O)N(Cc1ccc(-c2ccc(N(C)C)cc2)cc1)c1cc(Cl)cc(Cl)c1` [Compound 13v], for which, in test [2] (% vs INT-767 10 µM as 100%), the “TGR5 Efficacy (%) (10 µM)” value was 65.3%. Besides, the “FXR Efficacy (%) (1 µM)” value in test [4] was determined as 21.3%.
For `COC(=O)/C=C/c1ccc(C)c(N(Cc2ccc(-c3ccc(N(C)C)cc3)cc2)C(=O)c2ccncc2C)c1` [Compound 13h], in test [2] (% vs INT-767 10 µM as 100%), the “TGR5 Efficacy (%) (10 µM)” value is listed as 0.2%. Moreover, the “FXR Efficacy (%) (1 µM)” value in test [4] came to 25.3%.
For `Cc1cc(C)cc(N(Cc2ccc(-c3ccc(N(C)C)cc3)cc2)C(=O)c2ccncc2C)c1` [Compound 13l] the same measures were 48.5% and 37.6%.
As to `CCc1cnccc1C(=O)N(CC12CCC(c3ccc(OC)c(C)c3)(CC1)CC2)c1cc(F)cc(Cl)c1` [Compound 20j], in test [2] (% vs INT-767 10 µM as 100%), the “TGR5 Efficacy (%) (1 µM)” value is on record as 21.5% and the “TGR5 Efficacy (%) (10 µM)” value amounted to 71.1%. Besides, in test [4], the “FXR Efficacy (%) (0.1 µM)” value came to 13.5% and the “FXR Efficacy (%) (1 µM)” value was 71.7%.
`CN(C)c1ccc(-c2ccc(CN(C(=O)c3ccncc3Cl)c3cc(Cl)cc(Cl)c3)cc2)cc1` [Compound 13x]: the “TGR5 Efficacy (%) (10 µM)” value in test [2] (% vs INT-767 10 µM as 100%) is 9.8%. Moreover, the “FXR Efficacy (%) (1 µM)” value in test [4] worked out at 62.1%.
Consider `Cc1cccc([C@H]2CC[C@H](CN(C(=O)c3ccncc3C)c3cc(Cl)cc(Cl)c3)CC2)c1` [Compound 20c], for which, in test [2] (% vs INT-767 10 µM as 100%), the “TGR5 Efficacy (%) (10 µM)” value is reported as 5.7%. Moreover, in test [4], the “FXR Efficacy (%) (1 µM)” value is on record as 51.7%.
On to `COc1cc(Cl)cc(N(CC23CCC(c4ccc(N(C)C)cc4)(CC2)CC3)C(=O)c2ccncc2C)c1` [Compound 20t], for which the “TGR5 Efficacy (%) (1 µM)” value in test [2] (% vs INT-767 10 µM as 100%) amounted to 25.0%. Moreover, in test [4], the “FXR Efficacy (%) (0.1 µM)” value is on record as 32.8% and the “FXR Efficacy (%) (1 µM)” value was 77.3%.
Regarding `Cc1cnccc1C(=O)N(CC12CCC(c3ccc4c(c3)OCCO4)(CC1)CC2)c1cc(Cl)cc(Cl)c1` [Compound 20r], the “TGR5 agonist activity (in words)” value in test [2] was “most potent TGR5 activity”. Further, the “TGR5 Efficacy (%) (1 µM)” value in test [2] (% vs INT-767 10 µM as 100%) is on record as 57.1%. Also, in test [4], the “FXR Efficacy (%) (0.1 µM)” value turned out to be 28.0% and the “FXR Efficacy (%) (1 µM)” value is reported as 72.6%.
Turning to `Cc1cc(F)ccc1N(Cc1ccc(-c2ccc(N(C)C)cc2)cc1)C(=O)c1cccnc1` [Compound 13g], the “TGR5 Efficacy (%) (10 µM)” value in test [2] (% vs INT-767 10 µM as 100%) was 0.8%. Besides, the “FXR Efficacy (%) (1 µM)” value in test [4] came to 1.2%.
Regarding `Cc1cnccc1C(=O)N(Cc1ccc(-c2ccccc2)cc1)c1cc(Cl)cc(Cl)c1` [Compound 13ah], in test [2], the “TGR5 agonist activity (in words)” value is “TGR5 full agonist”. Besides, in test [2] (% vs INT-767 10 µM as 100%), the “TGR5 Efficacy (%) (10 µM)” value is reported as 118.6%. Moreover, in test [4], the “FXR Efficacy (%) (1 µM)” value came to 17.7%.
